Data published in ChEMBL document CHEMBL1151329, “New cyclic peroxides from the Philippine sponge Plakinastrella sp” (J Nat Prod, 1998).
Calls of active or inactive are those of the source. No cut-off for these calls is given here.

system: Candida albicans; assay: Antifungal activity against Candida albicans; format: functional, organism-based

Compound	Activity
CCC(C)CCCCCC/C=C\CC/C=C\CCCC(=O)OC (centres undefined)	inactive
C[C@@]1(CCCCCCCCCCc2ccccc2)C[C@]2(C)OC(=O)C[C@@H]2OO1	inactive
CC/C=C\C/C=C/C=C/CCCCCC[C@@]1(C)C[C@](C)(CC(=O)O)OO1 (relative stereo)	inactive
CC/C=C\C/C=C/C=C/CCCCCC[C@@]1(C)C[C@](C)(CC(=O)OC)OO1 (relative stereo)	inactive
